Test results: patent US8697658B2, “Glycoside compounds” (National Health Research Institutes, priority 2011, dated 2014)

Assays:
Male Sprague-Dawley rats = assay: In vivo urine glucose excretion assay; design: species or system rat; settings: single oral dose 0.1, 1, 10, and 50 mg/kg, then 50% glucose solution 2 g/kg orally, 24-hour urine collection
Experimental: Male Sprague-Dawley rats were used for glucosuria assessment. Male Sprague-Dawley rats of 8-10 weeks old were obtained from BioLasco, Ilan, Taiwan. The rats to be tested were fasted overnight and divided into 6 weight-matched groups. The rats were mildly anesthetized with a mixed gas of 30% O2 and 70% CO2 by inhalation and were orally gavaged with a single dose of the tested compounds (0.1, 1, 10, and 50 mg/kg), dapagliflozin (reference compound, 1 mg/kg), or vehicle. Each of the tested rats was subsequently dosed orally with 50% glucose solution (2 g/kg). The rats were returned to metabolism cages (ISHIHALA, Tokyo, Japan) for 24-hour urine collection and were re-fed at 1 h after the glucose challenge. Volume of the urine was measured and recorded. The urine samples were measured for glucose levels by a DRI-CHEM 3500 analyzer (FUJI, Tokyo, Japan). A P value of less than 0.05 was considered statistically significant.

[1] = test system: Streptozotocin-induced diabetes rats; assay: In vivo anti-hyperglycemia assay; design: species or system rat; settings: streptozotocin-induced diabetic rats, single oral dose, blood glucose at 0-5 hr, various dosages
Experimental: Streptozotocin-induced diabetes rats were used for assessment of blood glucose lowering effect. Adult male Sprague Dawley rats were obtained from BioLasco, Ilan, Taiwan. The rats received an intraperitoneal injection of streptozotocin (Sigma, Cat. No. S0130, St. Louis, Mo., USA) at a concentration of 65 mg/kg every other day. The streptozotocin solution was freshly prepared in 0.01 M citrate buffer. Blood samples were collected via tail vein with a 25 G needle once a week and were tested using a blood glucometer (ACCU-CHEK® from Roche, Basel, Schweiz) for glucose level. A glucose level of higher than 450 mg/dL indicates streptozotocin-induced diabetes. The diabetic rats were divided into 3-6 groups and were orally administered with a single dose of the tested compounds, dapagliflozin (reference compound), or vehicle. Blood samples were collected via tail vein at 0 (pre-dose), 0.5, 1, 2, 3, 4, and 5 hr after the oral administration and were measured for blood glucose levels with the glucometer. A P value of less than 0.05 was considered statistically significant.

| SMILES | effect in increasing urinary glucose excretion (Male Sprague-Dawley rats) | anti-hyperglycemia effect (blood glucose lowering) [1] |
| --- | --- | --- |
| CCOc1ccc(Cc2cc([C@@H]3O[C@H](C=NNC(=O)c4ccc(Cl)s4)[C@@H](O)[C@H](O)[C@H]3O)ccc2Cl)cc1 [Compound 95] | strong effect in increasing urinary glucose excretion in a dose-dependent manner | strong anti-hyperglycemia effect |
| CCOc1ccc(Cc2cc([C@@H]3O[C@H](C=NNCCO)[C@@H](O)[C@H](O)[C@H]3O)ccc2Cl)cc1 [Compound 78] | strong effect in increasing urinary glucose excretion in a dose-dependent manner | strong anti-hyperglycemia effect |
| O[C@@H]1[C@@H](O)[C@H](c2cn(Cc3ccc(C4CC4)cc3)c3c(F)cccc23)OC[C@H]1O [Compound 108] | – | strong anti-hyperglycemia effect |
| CCOc1ccc(Cc2cc([C@@H]3O[C@H](C=NOC)[C@@H](O)[C@H](O)[C@H]3O)ccc2Cl)cc1 [Compound 71] | strong effect in increasing urinary glucose excretion in a dose-dependent manner | – |
| CCOc1ccc(Cc2cc([C@@H]3O[C@H](CNOC)[C@@H](O)[C@H](O)[C@H]3O)ccc2Cl)cc1 [Compound 79] | strong effect in increasing urinary glucose excretion in a dose-dependent manner | – |
| CCOc1ccc(Cc2cc([C@@H]3O[C@H](C=NNC(=S)NC)[C@@H](O)[C@H](O)[C@H]3O)ccc2Cl)cc1 [Compound 87] | strong effect in increasing urinary glucose excretion in a dose-dependent manner | strong anti-hyperglycemia effect |
| CCOc1ccc(Cc2cc([C@@H]3O[C@H](C=NNC(=O)c4cccs4)[C@@H](O)[C@H](O)[C@H]3O)ccc2Cl)cc1 [Compound 81] | strong effect in increasing urinary glucose excretion in a dose-dependent manner | – |
| CCOc1ccc(Cc2cc([C@@H]3O[C@H](C=NO)[C@@H](O)[C@H](O)[C@H]3O)ccc2Cl)cc1 [Compound 70] | strong effect in increasing urinary glucose excretion in a dose-dependent manner | strong anti-hyperglycemia effect |
| CCOc1ccc(Cc2cc([C@@H]3O[C@H](C=NNC(=O)c4ccccc4)[C@@H](O)[C@H](O)[C@H]3O)ccc2Cl)cc1 [Compound 93] | strong effect in increasing urinary glucose excretion in a dose-dependent manner | strong anti-hyperglycemia effect |
